Test results taken from article PMC9607164, “Rational Design, Synthesis and Biological Evaluation of Novel Pyrazoline-Based Antiproliferative Agents in MCF-7 Cancer Cells” (Pharmaceuticals, 2022).
Where two headings read alike, the source gives them in different places.

Assays:
[1] = tested on: MCF-10A normal breast cells; assay: MTT cytotoxicity assay on MCF-10A; type: cell-based; conditions: Homo sapiens, 48 h, n = 3, read-out: IC50 ± SD, MCF-10A
Description: (§1) Both breast cancer (MCF-7) and normal breast (MCF-10A) cells were purchased from National Research Institute, Egypt, and maintained in complete media of RPMI-1640 medium L-Glutamine (Lonza Verviers SPRL, Belgium, cat#12-604F). Cells were incubated following standard tissue culture work. Cell viability was measured 48 h later, utilizing MTT colorimetric assay (Promega, Madison, WI, USA). Absorbance was consequently assessed (at 570 nm) using an ELISA microplate reader (BIO-RAD, model iMark, Tokyo, Japan). Using GraphPad Prism 7, the IC50 values were determined, and the viability at each concentration was determined in comparison to the control.

[2] = tested on: MCF-7 cancer cells; assay: MTT cytotoxicity assay on MCF-7; type: cell-based; conditions: MTT assay, 48 h, n = 3, NA: Non-Active, read-out: IC50 ± SD, MCF-7
Description: as §1

[3] = target: T1, HER2 Kinase (Homo sapiens, UniProt P04626); assay: HER2 Kinase Assay Kit (BPS Bioscience); type: biochemical; conditions: mean ± SD of three replicates, five concentrations
T1 construct: purchased BPS Bioscience 40721
T1 sequence (P04626 23-1255): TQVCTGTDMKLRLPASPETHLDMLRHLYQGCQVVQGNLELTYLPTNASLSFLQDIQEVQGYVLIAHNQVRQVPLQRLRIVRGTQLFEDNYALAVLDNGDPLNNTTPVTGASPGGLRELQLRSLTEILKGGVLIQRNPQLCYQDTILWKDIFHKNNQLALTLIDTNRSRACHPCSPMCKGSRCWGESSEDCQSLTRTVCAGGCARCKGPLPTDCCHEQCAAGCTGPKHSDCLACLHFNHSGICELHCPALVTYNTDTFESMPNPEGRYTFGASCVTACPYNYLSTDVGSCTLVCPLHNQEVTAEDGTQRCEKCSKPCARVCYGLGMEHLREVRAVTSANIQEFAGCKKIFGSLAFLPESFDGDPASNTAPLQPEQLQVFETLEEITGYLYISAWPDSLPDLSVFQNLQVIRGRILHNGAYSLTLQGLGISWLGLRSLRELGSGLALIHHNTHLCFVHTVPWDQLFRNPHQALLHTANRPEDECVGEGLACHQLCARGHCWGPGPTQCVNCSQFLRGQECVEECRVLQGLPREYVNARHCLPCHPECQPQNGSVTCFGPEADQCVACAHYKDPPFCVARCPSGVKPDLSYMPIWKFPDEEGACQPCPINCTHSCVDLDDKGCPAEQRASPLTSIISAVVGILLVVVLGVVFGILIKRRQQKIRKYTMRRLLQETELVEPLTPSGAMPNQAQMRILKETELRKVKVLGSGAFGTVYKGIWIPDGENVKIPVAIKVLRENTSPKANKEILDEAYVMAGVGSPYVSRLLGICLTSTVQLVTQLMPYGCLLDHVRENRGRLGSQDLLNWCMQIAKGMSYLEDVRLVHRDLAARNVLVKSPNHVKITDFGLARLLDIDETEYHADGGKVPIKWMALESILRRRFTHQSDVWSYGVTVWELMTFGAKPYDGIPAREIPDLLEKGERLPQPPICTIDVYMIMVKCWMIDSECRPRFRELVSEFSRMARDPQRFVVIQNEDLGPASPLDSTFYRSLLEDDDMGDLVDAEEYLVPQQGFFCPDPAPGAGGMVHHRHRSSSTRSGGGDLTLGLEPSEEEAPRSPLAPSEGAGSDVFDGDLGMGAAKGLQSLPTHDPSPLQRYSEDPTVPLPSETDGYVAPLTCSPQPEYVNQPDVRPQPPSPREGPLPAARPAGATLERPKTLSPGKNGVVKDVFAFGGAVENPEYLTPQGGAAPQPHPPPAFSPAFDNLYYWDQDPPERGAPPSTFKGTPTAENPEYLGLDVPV
Description: (§2) Compounds’ autophosphorylation percentage inhibition was computed according to the following equation: […] , then IC50 values were calculated using GraphPad prism software.

[4] = target: T2, EGFR Kinase (Homo sapiens, UniProt P00533); assay: EGFR Kinase Assay Kit (BPS Bioscience); type: biochemical; conditions: mean ± SD of three replicates, five concentrations
T2 construct: purchased BPS Bioscience 40321
T2 sequence (P00533 25-1210): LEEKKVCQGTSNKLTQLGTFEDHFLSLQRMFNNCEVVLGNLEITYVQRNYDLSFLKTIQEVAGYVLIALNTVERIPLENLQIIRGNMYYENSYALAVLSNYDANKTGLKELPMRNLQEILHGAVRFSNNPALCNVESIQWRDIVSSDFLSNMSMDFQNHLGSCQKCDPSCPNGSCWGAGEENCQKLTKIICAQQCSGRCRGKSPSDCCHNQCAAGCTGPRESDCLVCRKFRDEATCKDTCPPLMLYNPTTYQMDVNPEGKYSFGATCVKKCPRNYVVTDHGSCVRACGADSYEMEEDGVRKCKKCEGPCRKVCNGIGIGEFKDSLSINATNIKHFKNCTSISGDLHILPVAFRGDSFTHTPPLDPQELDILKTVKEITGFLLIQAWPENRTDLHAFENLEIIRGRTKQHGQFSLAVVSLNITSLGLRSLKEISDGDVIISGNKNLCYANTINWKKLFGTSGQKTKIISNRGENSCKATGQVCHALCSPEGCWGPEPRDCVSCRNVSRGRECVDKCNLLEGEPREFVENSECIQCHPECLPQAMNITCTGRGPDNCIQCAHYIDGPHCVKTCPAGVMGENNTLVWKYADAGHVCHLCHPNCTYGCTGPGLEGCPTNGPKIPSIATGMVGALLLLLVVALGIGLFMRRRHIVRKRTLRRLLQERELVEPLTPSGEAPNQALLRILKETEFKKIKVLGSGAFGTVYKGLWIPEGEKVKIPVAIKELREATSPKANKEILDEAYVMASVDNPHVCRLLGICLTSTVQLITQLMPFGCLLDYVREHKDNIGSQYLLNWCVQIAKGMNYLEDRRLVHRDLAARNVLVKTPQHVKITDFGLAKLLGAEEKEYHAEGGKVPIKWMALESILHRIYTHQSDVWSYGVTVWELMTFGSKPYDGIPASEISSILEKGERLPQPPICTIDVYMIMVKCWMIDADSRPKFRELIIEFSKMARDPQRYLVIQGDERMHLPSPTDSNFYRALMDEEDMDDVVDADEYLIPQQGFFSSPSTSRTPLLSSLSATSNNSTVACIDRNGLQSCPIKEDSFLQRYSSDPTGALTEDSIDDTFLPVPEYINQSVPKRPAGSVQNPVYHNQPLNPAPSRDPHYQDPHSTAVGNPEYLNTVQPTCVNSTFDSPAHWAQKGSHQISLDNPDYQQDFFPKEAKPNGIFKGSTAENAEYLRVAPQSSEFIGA
Description: as §2

[5] = tested on: breast cancer cells MCF-7; conditions: cited from earlier work
[6] = type: in vivo; conditions: 10 mg/kg BW, IP; MCF-7 control 32.28 g, normal 24.5 g
Description: In vivo experiments for lethal dose (LD50), experimental design, tumor mass, blood parameters, histopathological examinations were accomplished as previously described. After inoculating the tumor cells, masses of the solid tumor started to appear ten days later. […]. Animals from each group were sacrificed, and their blood was drawn to measure hemoglobin (Hb), red blood cell (RBC), white blood cell (WBC), and liver enzymes (ALT, AST, albumin, and total protein) levels.

[7] = reported pyrazoline-based agents

melting point [°C] | SMILES | IC50 [1] [µM] | IC50 ([2]; Homo sapiens, MCF7, 48 h) [µM] | other results
202 to 205 | COc1ccc(C2=NN(c3nc(-c4ccccc4)cs3)C(c3ccccc3)C2)cc1OC (stereo not drawn) [Compound 6a, 2-(3-(3,4-Dimethoxyphenyl)-5-phenyl-4,5-dihydro-1H-pyrazol-1-yl)-4-phenylthiazole] | ≥ 50 |  | 
210 to 215 | COc1ccc(C2=NN(c3nc(-c4ccc(C)cc4)cs3)C(c3ccccc3)C2)cc1OC (stereo not drawn) [Compound 6b, 2-(3-(3,4-Dimethoxyphenyl)-5-phenyl-4,5-dihydro-1H-pyrazol-1-yl)-4-(p-tolyl)thiazole] | ≥ 50 | 13.4 ± 0.98 | 
135 to 140 | COc1ccc(C2=NN(c3nc(-c4ccc(F)cc4)cs3)C(c3ccccc3)C2)cc1OC (stereo not drawn) [Compound 6c, 2-(3-(3,4-Dimethoxyphenyl)-5-phenyl-4,5-dihydro-1H-pyrazol-1-yl)-4-(4-fluorophenyl)thiazole] | ≥ 50 | 18.7 ± 0.84 | 
195 to 198 | COc1ccc(C2=NN(c3nc(-c4ccc(Cl)cc4)cs3)C(c3ccccc3)C2)cc1OC (stereo not drawn) [Compound 6d, 4-(4-Chlorophenyl)-2-(3-(3,4-dimethoxyphenyl)-5-phenyl-4,5-dihydro-1H-pyrazol-1-yl)thiazole] | 45.2 ± 1.24 |  | 
150 to 152 | COc1ccc(C2CC(c3ccc(OC)c(OC)c3)=NN2c2nc(-c3ccc(C)cc3)cs2)cc1 (stereo not drawn) [Compound 6f, 2-(3-(3,4-Dimethoxyphenyl)-5-(4-methoxyphenyl)-4,5-dihydro-1H-pyrazol-1-yl)-4-(p-tolyl)thiazole] | 35.4 ± 1.84 | 11.1 ± 0.85 | IC50 [3]: 0.12 ± 0.025 µM; IC50 [4]: 0.23 ± 0.024 µM
140 to 143 | COc1ccc(C2CC(c3ccc(OC)c(OC)c3)=NN2c2nc(-c3ccc(F)cc3)cs2)cc1 (stereo not drawn) [Compound 6g, 2-(3-(3,4-Dimethoxyphenyl)-5-(4-methoxyphenyl)-4,5-dihydro-1H-pyrazol-1-yl)-4-(4-fluorophenyl)thiazole] | 24.5 ± 1.01 | 15.4 ± 0.79 | 
149 to 151 | COc1ccc(C2CC(c3ccc(OC)c(OC)c3)=NN2c2nc(-c3ccc(Cl)cc3)cs2)cc1 (stereo not drawn) [Compound 6h, 4-(4-Chlorophenyl)-2-(3-(3,4-dimethoxyphenyl)-5-(4-methoxyphenyl)-4,5-dihydro-1H-pyrazol-1-yl)thiazole] | 26.5 ± 1.59 | 35.2 ± 1.27 | 
208 to 210 | COc1ccc(C2=NN(c3nc(-c4ccccc4)cs3)C(c3ccc(Cl)cc3)C2)cc1OC (stereo not drawn) [Compound 6i, 2-(5-(4-Chlorophenyl)-3-(3,4-dimethoxyphenyl)-4,5-dihydro-1H-pyrazol-1-yl)-4-phenylthiazole] | 15.8 ± 1.08 | 45.4 ± 1.87 | 
189 to 191 | COc1ccc(C2=NN(c3nc(-c4ccc(C)cc4)cs3)C(c3ccc(Cl)cc3)C2)cc1OC (stereo not drawn) [Compound 6j, 2-(5-(4-Chlorophenyl)-3-(3,4-dimethoxyphenyl)-4,5-dihydro-1H-pyrazol-1-yl)-4-(p-tolyl)thiazole] | ≥ 50 |  | 
195 to 197 | COc1ccc(C2=NN(c3nc(-c4ccc(Cl)cc4)cs3)C(c3ccc(Cl)cc3)C2)cc1OC (stereo not drawn) [Compound 6l, 4-(4-Chlorophenyl)-2-(5-(4-chlorophenyl)-3-(3,4-dimethoxyphenyl)-4,5-dihydro-1H-pyrazol-1-yl)thiazole] | 35.7 ± 1.85 | 17.6 ± 0.97 | 
235 to 238 | COc1ccc(C2=NN(c3nc(C)c(C(C)=O)s3)C(c3ccccc3)C2)cc1OC (stereo not drawn) [Compound 9a, 1-(2-(3-(3,4-Dimethoxyphenyl)-5-phenyl-4,5-dihydro-1H-pyrazol-1-yl)-4-methylthiazol-5-yl)ethan-1-one] | 18.9 ± 1.09 | 34.2 ± 1.68 | 
213 to 215 | COc1ccc(C2CC(c3ccc(OC)c(OC)c3)=NN2c2nc(C)c(C(C)=O)s2)cc1 (stereo not drawn) [Compound 9b, 1-(2-(3-(3,4-Dimethoxyphenyl)-5-(4-methoxyphenyl)-4,5-dihydro-1H-pyrazol-1-yl)-4-methylthiazol-5-yl)ethan-1-one] | 26.3 ± 1.07 | 31.7 ± 1.96 | 
215 to 218 | COc1ccc(C2=NN(c3nc(C)c(C(C)=O)s3)C(c3ccc(Cl)cc3)C2)cc1OC (stereo not drawn) [Compound 9c, 1-(2-(5-(4-Chlorophenyl)-3-(3,4-dimethoxyphenyl)-4,5-dihydro-1H-pyrazol-1-yl)-4-methylthiazol-5-yl)ethan-1-one] | ≥ 50 |  | 
215 to 218 | CCOC(=O)c1sc(N2N=C(c3ccc(OC)c(OC)c3)CC2c2ccccc2)nc1C (stereo not drawn) [Compound 9d, Ethyl 2-(3-(3,4-Dimethoxyphenyl)-5-phenyl-4,5-dihydro-1H-pyrazol-1-yl)-4-methylthiazole-5-carboxylate] | 24.3 ± 1.39 |  | 
169 to 171 | CCOC(=O)c1sc(N2N=C(c3ccc(OC)c(OC)c3)CC2c2ccc(OC)cc2)nc1C (stereo not drawn) [Compound 9e, Ethyl 2-(3-(3,4-Dimethoxyphenyl)-5-(4-methoxyphenyl)-4,5-dihydro-1H-pyrazol-1-yl)-4-methylthiazole-5-carboxylate] | 43.6 ± 1.85 | 18.9 ± 1.03 | 
197 to 200 | CCOC(=O)c1sc(N2N=C(c3ccc(OC)c(OC)c3)CC2c2ccc(Cl)cc2)nc1C (stereo not drawn) [Compound 9f, Ethyl 2-(5-(4-Chlorophenyl)-3-(3,4-dimethoxyphenyl)-4,5-dihydro-1H-pyrazol-1-yl)-4-methylthiazole-5-carboxylate] | ≥ 50 | 8.35 ± 0.29 | IC50 [3]: 0.14 ± 0.006 µM; IC50 [4]: 0.051 ± 0.003 µM

The remaining lines, values behind:

SMILES | melting point [°C] | IC50 [1] [µM] | IC50 ([2]; Homo sapiens, MCF7, 48 h) [µM] | other results
COc1ccc(C2=NN(C(N)=S)C(c3ccccc3)C2)cc1OC (stereo not drawn) [Compound 3a, 3-(3,4-Dimethoxyphenyl)-5-phenyl-4,5-dihydro-1H-pyrazole-1-carbothioamide] | 188 to 190 | 36.5 ± 1.15 |  | 
COc1ccc(C2CC(c3ccc(OC)c(OC)c3)=NN2C(N)=S)cc1 (stereo not drawn) [Compound 3b, 3-(3,4-Dimethoxyphenyl)-5-(4-methoxyphenyl)-4,5-dihydro-1H-pyrazole-1-carbothioamide] | 221 to 223 | 34.8 ± 1.35 | 23.6 ± 0.72 | 
COc1ccc(C2=NN(C(N)=S)C(c3ccc(Cl)cc3)C2)cc1OC (stereo not drawn) [Compound 3c, 5-(4-Chlorophenyl)-3-(3,4-dimethoxyphenyl)-4,5-dihydro-1H-pyrazole-1-carbothioamide] | 230 to 232 | ≥ 50 | 11.1 | IC50 [3]: 0.07 ± 0.018 µM; IC50 [4]: 0.067 ± 0.009 µM; IC50 [2]: 11.2 ± 0.54 µM
Cc1nc(Nc2ncc(C(=O)Nc3c(C)cccc3Cl)s2)cc(N2CCN(CCO)CC2)n1 [Dasatinib] |  |  |  | MCF-7 (measure not named) ([5]; Figure 2, reported agent): 17.03 µM
COc1ccc2ccc(=O)oc2c1C1=NN(S(=O)(=O)c2ccc(C)cc2)C(c2ccccc2)C1 (stereo not drawn) [III] |  |  |  | IC50 [5, 7]: 34.1 µM
O=C1CCC(=O)N1CC(=O)N1N=C(c2ccccc2)CC1c1ccccc1 (stereo not drawn) [II] |  |  |  | IC50 [5, 7]: 0.42 µM
CC(=O)N1N=C(c2ccc(OC3OC4OC5(C)CCC6C(C)CCC(C3C)C46OO5)cc2)CC1c1ccccc1 (stereo not drawn) [I] |  |  |  | GI50 ([5]; reported pyrazoline-based agent): 0.13 µM
CS(=O)(=O)CCNCc1ccc(-c2ccc3ncnc(Nc4ccc(OCc5cccc(F)c5)c(Cl)c4)c3c2)o1 [Lapatinib, reference compound] |  | ≥ 50 | 7.45 | mice weight [6]: 27.35 g
O=C1c2ccccc2C(=O)N1CCc1csc(N(/N=C/c2cc(Cl)cc(Cl)c2)C(=O)CCl)n1 [V] |  |  |  | IC50 ([5]; reported thiazole-based agent): 9.06 µM
